Tested on: FSH
Test: FSH level in blood (serum CLIA) after repeated sc PEP-1
Assay type: in vivo, SD rats
Protocol: PEP-1 (peptide of SEQ ID NO: 1), lyophilized white powder, obtained according to the method mentioned in example 1 was dissolved in 0.9% of saline, considering the correction factor of PEP-1 (purity: 94.13%, content: 92.36%, correction factor: 1.15). 50 mg/mL stock solution was further diluted into 20 mg/mL, 2 mg/mL, and 1 mg/mL with 0.9% saline, and stored at 4° C. for a week until the use.
The purpose of this example is to confirm the change of sexual hormones in blood from SD rats with 7 days repeated daily administration of SEQ ID NO: 1 peptide, PEP-1. This experiment followed the Ethics Regulation of Animal Test by KAMSI Inc. (Korea Animal Medical Science Institute). In addition, this experiment, Non-GLP experiment, referred to the MFDS (Ministry of Food and Drug Safety) notification; Agent 2013-40 (5th April 2013), Principles of Good Laboratory Practice (1997).
SPF Rats (Crlj:CD(SD)) were purchased from ORIENTBio Inc. (Mokdong-ri, Buk-myeon, Gapyeong-gun, Gyeonggi-do, Republic of Korea). 75 male (6.5 weeks old and 190˜210 g) and 75 female (6.5 weeks old and 160˜180 g) rats were monitored for 4 days, and 64 of male and female rats (each) were selected for the experiment. Raising condition is as follows; 23±3° C. of temperature, […] of relative humidity, 10˜20 times/hr of number of air changes, 12 hours (8 a.m.˜8 p.m.) of lighting with 150˜300 Lux of intensity.
64 male and female […] (mentioned above) were divided into 8 groups. Administration regimen, for example, drugs, routes, dosages, and volumes were as follows:
The detailed administration regimen is as follows; once a day, twice a day and twice a week in each experimental group. Injection initiated at 10 a.m. every day, and each rat was injected at one minute intervals. Rats in Group 9, 10, 13 and 14 were injected twice a week. Administration of high dose test agent preceded that of low dose. The volume of injection was calculated using recently measured weight of rats, and it was 5 mL/kg. Subcutaneous injection was performed as follows; assistant tilted the back of rat upward, and experimenter sterilized the back of rat with 70% alcohol, followed by subcutaneous injection of test agent with 26 G syringe.
1.4 mL of blood sample (0.7 mL of serum) was collected after measurement of weight (Day 0). Next day (1 Day), 1.4 mL of blood sample (0.7 mL of serum) was collected twice after injection of test agent (4 hrs and 8 hrs after administration of test agent). For next 6 days (Day 2˜Day 7), 1.4 mL of blood was extracted once everyday (4 hours after injection of test agent). Dose and volume of test agent of each group followed the Table 3, and injection time zone was same every day. Blood was extracted from the jugular vein, and left at room temperature for 30 minutes. Serum was separated using centrifugation (10,000 rpm for 5 minutes), and stored at −70±5° C. in Deep freezer until the use. Blood extraction from each subject was done in the same time zone every day.
A CLIA (Chemi-Luminescence Immune Assay) Kit was used to analyze Testosterone, Estradiol E2, FSH (Follicle stimulating hormone), and LH (Luteinizing hormone). Analysis was completed within 48 hrs after blood extraction (Laboratory Medicine Department, Chung-Ang University Hospital), and detailed method is as follows; One-way ANOVA was used to verify the comparison between the vehicle and PEP-1, and between different doses of PEP-1. For further analysis, Duncan test was used as parametric test and Dunnett's test as non-parametric test. p<0.05 represents the statistical significance, and all statistical analysis was carried out with SPSS 10.1.
FSH was analyzed using the samples prepared from example 2. 100 μL of serum was used for analysis. Fundamentals of analysis is Two-site sandwich immunoassay based on direct chemi-luminescent. As mentioned in example 2, CLIA (Chemi-luminescence immune assay) Kit was used, following the manufacture's protocol.

Sequence: EARPALLTSRLRFIPK (listed as Homo sapiens) [PEP-1, hormone secretion modulator / GnRH analog]
- FSH level in blood (G3 Male 5 mg/kg sc 1/day x7, 7 days): 0.10 mIU/mL
- FSH level in blood (G4 Female 5 mg/kg sc 1/day x7, 4 hr): 0.17 mIU/mL
- FSH level in blood (G4 Female 5 mg/kg sc 1/day x7, 8 hr): 0.30 mIU/mL
- FSH level in blood (G4 Female 5 mg/kg sc 1/day x7, 2 days): 0.32 mIU/mL
- FSH level in blood (G4 Female 5 mg/kg sc 1/day x7, 3 days): 0.12 mIU/mL
- FSH level in blood (G4 Female 5 mg/kg sc 1/day x7, 4 days): 0.17 mIU/mL
- FSH level in blood (G4 Female 5 mg/kg sc 1/day x7, 5 days): 0.21 mIU/mL
- FSH level in blood (G4 Female 5 mg/kg sc 1/day x7, 6 days): 0.13 mIU/mL
- FSH level in blood (G4 Female 5 mg/kg sc 1/day x7, 7 days): 0.17 mIU/mL
- FSH level in blood (G4 Female 5 mg/kg sc 1/day x7, pre): 0.20 mIU/mL
- FSH level in blood (G6 Female 10 mg/kg sc 1/day x7, 4 hr): 0.31 mIU/mL
- FSH level in blood (G6 Female 10 mg/kg sc 1/day x7, 8 hr): 0.48 mIU/mL
- FSH level in blood (G6 Female 10 mg/kg sc 1/day x7, 2 days): 0.31 mIU/mL
- FSH level in blood (G6 Female 10 mg/kg sc 1/day x7, 3 days): 0.20 mIU/mL
- FSH level in blood (G6 Female 10 mg/kg sc 1/day x7, 4 days): 0.17 mIU/mL
- FSH level in blood (G6 Female 10 mg/kg sc 1/day x7, 5 days): 0.19 mIU/mL
- FSH level in blood (G6 Female 10 mg/kg sc 1/day x7, 6 days): 0.1 mIU/mL
- FSH level in blood (G6 Female 10 mg/kg sc 1/day x7, 7 days): 0.16 mIU/mL
- FSH level in blood (G6 Female 10 mg/kg sc 1/day x7, pre): 0.31 mIU/mL
- FSH level in blood (G8 Female 10 mg/kg sc 2/day x4, 4 hr): 0.26 mIU/mL
- FSH level in blood (G8 Female 10 mg/kg sc 2/day x4, 8 hr): 0.21 mIU/mL
- FSH level in blood (G8 Female 10 mg/kg sc 2/day x4, 2 days): 0.28 mIU/mL
- FSH level in blood (G8 Female 10 mg/kg sc 2/day x4, 3 days): 0.18 mIU/mL
- FSH level in blood (G8 Female 10 mg/kg sc 2/day x4, 4 days): 0.13 mIU/mL
- FSH level in blood (G8 Female 10 mg/kg sc 2/day x4, 5 days): 0.16 mIU/mL
- FSH level in blood (G8 Female 10 mg/kg sc 2/day x4, 6 days): 0.15 mIU/mL
- FSH level in blood (G8 Female 10 mg/kg sc 2/day x4, 7 days): 0.21 mIU/mL
- FSH level in blood (G8 Female 10 mg/kg sc 2/day x4, pre): 0.26 mIU/mL
- FSH level in blood (G9 Male 10 mg/kg sc 2/week x2 (days 1,7), 4 hr): 0.29 mIU/mL
- FSH level in blood (G9 Male 10 mg/kg sc 2/week x2 (days 1,7), 8 hr): 0.28 mIU/mL
- FSH level in blood (G9 Male 10 mg/kg sc 2/week x2 (days 1,7), 2 days): 0.22 mIU/mL
- FSH level in blood (G9 Male 10 mg/kg sc 2/week x2 (days 1,7), 3 days): 0.17 mIU/mL
- FSH level in blood (G9 Male 10 mg/kg sc 2/week x2 (days 1,7), 4 days): 0.37 mIU/mL
- FSH level in blood (G9 Male 10 mg/kg sc 2/week x2 (days 1,7), 5 days): 0.25 mIU/mL
- FSH level in blood (G9 Male 10 mg/kg sc 2/week x2 (days 1,7), 6 days): 0.14 mIU/mL
- FSH level in blood (G9 Male 10 mg/kg sc 2/week x2 (days 1,7), 7 days): 0.15 mIU/mL
- FSH level in blood (G9 Male 10 mg/kg sc 2/week x2 (days 1,7), pre): 0.28 mIU/mL
- FSH level in blood (G10 Female 10 mg/kg sc 2/week x2 (days 1,7), 4 hr): 0.26 mIU/mL
- FSH level in blood (G10 Female 10 mg/kg sc 2/week x2 (days 1,7), 8 hr): 0.44 mIU/mL
- FSH level in blood (G10 Female 10 mg/kg sc 2/week x2 (days 1,7), 2 days): 0.37 mIU/mL
- FSH level in blood (G10 Female 10 mg/kg sc 2/week x2 (days 1,7), 3 days): 0.21 mIU/mL
- FSH level in blood (G10 Female 10 mg/kg sc 2/week x2 (days 1,7), 4 days): 0.18 mIU/mL
- FSH level in blood (G10 Female 10 mg/kg sc 2/week x2 (days 1,7), 5 days): 0.32 mIU/mL
- FSH level in blood (G10 Female 10 mg/kg sc 2/week x2 (days 1,7), 6 days): 0.23 mIU/mL
- FSH level in blood (G10 Female 10 mg/kg sc 2/week x2 (days 1,7), 7 days): 0.28 mIU/mL
- FSH level in blood (G10 Female 10 mg/kg sc 2/week x2 (days 1,7), pre): 0.31 mIU/mL
- FSH level in blood (G11 Male 100 mg/kg sc 1/day x7, 4 hr): 0.27 mIU/mL
- FSH level in blood (G11 Male 100 mg/kg sc 1/day x7, 8 hr): 0.36 mIU/mL
- FSH level in blood (G11 Male 100 mg/kg sc 1/day x7, 2 days): 0.17 mIU/mL
- FSH level in blood (G11 Male 100 mg/kg sc 1/day x7, 3 days): 0.14 mIU/mL
